From US20260146264A1, “METHODS FOR REPROGRAMMING AND GENE EDITING CELLS” (Factor Bioscience Inc., priority 2023, published 2026)
“Also recorded” adds a separate entry of the source.

Legend:
pJet promoter = assay: Reactivation of silenced pJet promoter (GFP expression) during iPSC to iMSC differentiation; assay type: cell-based, human; conditions: 10 μM, 24 hours on day 23 of differentiation, JeT-GFP cells
Description: • 1. Transfect hiPSCs with a chromatin context-sensitive gene editing endonuclease according to some embodiments of the present disclosure, mRNA and single stranded DNA repair templates encoding GFP sequence under JeT (“pJet”) and Ef1a promoters. • 2. Perform gDNA extraction and AAVS1 surveyor PCR to confirm ssDNA repair template integration at AAVS1 locus • 3. Perform single cell sorting to obtain homogeneous cell line started from a single cell • 4. Using Stemdiff™ Mesenchymal Progenitor kit, differentiate iPS cell lines inserted with pJet and Ef1a GFP sequence in their genomes into iMSCs. • 5. Verify robust iMSC differentiation using surface marker expression at the completion of differentiation.
FIG. 16A and FIG. 16B show the tracking of GFP expression under a pJet promoter during iPSC to iMSC differentiation. […] GFP was expressed from day 18 to 30 but was completely silenced on day 33.

[1] = test system: COL7A1_e73 gene-editing protein pair USN1 (US2L/US2R D450A) D450A in FokI domain of right protein (D67A of SEQ 80; mutant FokI domain is SEQ 81) (synthetic construct); assay: cell_activity; conditions: T7E1 assay, primary human fibroblasts; nickase pair, 58.7% relative insertion of 300 bp dsDNA donor vs 72.3% for US22
[2] = test system: COL7A1_e73 gene-editing protein pair US22 (US2L/US2R, wild-type FokI domains) (synthetic construct); assay: cell_activity; conditions: T7E1 assay, primary human fibroblasts; 9.4% in iPSCs (p667)
[3] = test system: COL7A1_e73 gene-editing protein pair USN2 (US2L/US2R D450N) D450N in FokI domain of right protein (D67N of SEQ 80; mutant FokI domain is SEQ 82) (synthetic construct); assay: cell_activity; conditions: T7E1 assay, primary human fibroblasts; 0.4% in iPSCs; nickase pair, 42.9% relative insertion of dsDNA donor in fibroblasts
[4] = test system: COL7A1_e73 gene-editing protein pair USN3 (US2L/US2R D467A) D467A in FokI domain of right protein (D84A of SEQ 80; mutant FokI domain is SEQ 83) (synthetic construct); assay: cell_activity; conditions: T7E1 assay, primary human fibroblasts; nickase pair

Description for Control iMSCs: The cytotoxicity of small-molecule IDO1 inhibitors was assessed by flow cytometry after a 48 hour incubation with Control iMSCs. Viability is shown relative to PBS controls.

In the case of NS(=O)(=O)NCCNc1nonc1C(=NO)Nc1ccc(F)c(Br)c1 [Epacadostat], the “cytotoxicity (viability relative to PBS controls)” value (Control iMSCs) is reported as “no significant difference relative to PBS”.
C[C@@H](NC(=O)c1ccc(F)cc1)c1ccc2c(c1)CCN2C(=O)C1CCOCC1 [IDO1-IN-5] was tested, and the “cytotoxicity (viability relative to PBS controls)” value (Control iMSCs) was “mild cytotoxicity”.
In the case of CC(/C=C/C(=O)NO)=C\[C@@H](C)C(=O)c1ccc(N(C)C)cc1 [Trichostatin A], the “GFP expression post TSA treatment” value (pJet promoter) is reported as “temporary increase in GFP expression” and the “GFP expression post TSA treatment” value (pJet promoter; listed as TSA) is reported as “noticeable increase of GFP expression; also recorded: successfully demethylated and reactivated the pJet promoter”.
With COL7A1 exon 73 target site the activity [1] was 4.4 % NHEJ/MMEJ, the activity [2] was 61.9 % NHEJ/MMEJ and the activity [3] was 3.1 % NHEJ/MMEJ. It also gave an activity [4] of 11.1 % NHEJ/MMEJ.
